Results published in ChEMBL document CHEMBL1143081, “Identification of 1S,2R-milnacipran analogs as potent norepinephrine and serotonin transporter inhibitors” (Bioorg Med Chem Lett, 2008).

What was measured:
[1] = molecular target: Sodium-dependent noradrenaline transporter (Homo sapiens, UniProt P23975)
[2] = molecular target: Sodium-dependent dopamine transporter (Homo sapiens, UniProt Q01959)
[3] = molecular target: Sodium-dependent serotonin transporter (Homo sapiens, UniProt P31645)
[4] = Metabolic stability in human liver microsomes assessed as systemic clearance; format: ADME, Microsome
[5] = Apparent permeability across human Caco-2 cells; format: ADME, cell-based
[6] = Lipophilicity, Log D of the compound; format: physicochemical; settings: octanol/water
[7] = Partition coefficient, log P of the compound; format: physicochemical; settings: octanol/water
[8] = Renal clearance in human; format: ADME, organism-based, Kidney; settings: in vivo, read-out: CL_renal
clinical = settings: human, in vivo, po
Description: Oral bioavailability in human

[9] = Elimination half life in human; format: ADME, organism-based; settings: in vivo

Sequence of Sodium-dependent noradrenaline transporter (P23975 whole entry): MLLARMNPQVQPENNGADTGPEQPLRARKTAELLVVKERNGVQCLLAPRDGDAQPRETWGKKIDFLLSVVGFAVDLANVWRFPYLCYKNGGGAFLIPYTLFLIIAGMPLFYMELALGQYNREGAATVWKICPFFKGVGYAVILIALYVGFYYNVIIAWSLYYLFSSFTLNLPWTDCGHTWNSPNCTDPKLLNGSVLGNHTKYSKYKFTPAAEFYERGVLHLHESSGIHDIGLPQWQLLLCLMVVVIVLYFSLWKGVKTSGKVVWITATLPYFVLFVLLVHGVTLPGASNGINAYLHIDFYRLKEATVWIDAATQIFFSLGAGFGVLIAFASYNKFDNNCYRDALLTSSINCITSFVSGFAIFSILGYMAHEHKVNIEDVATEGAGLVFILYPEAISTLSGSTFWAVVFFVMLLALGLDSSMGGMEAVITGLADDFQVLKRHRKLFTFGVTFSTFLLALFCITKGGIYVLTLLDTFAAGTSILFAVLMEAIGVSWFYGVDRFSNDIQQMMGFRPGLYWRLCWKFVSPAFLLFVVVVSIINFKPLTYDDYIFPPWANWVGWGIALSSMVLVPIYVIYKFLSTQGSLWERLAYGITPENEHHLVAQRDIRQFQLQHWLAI
Sequence of Sodium-dependent serotonin transporter (P31645 whole entry): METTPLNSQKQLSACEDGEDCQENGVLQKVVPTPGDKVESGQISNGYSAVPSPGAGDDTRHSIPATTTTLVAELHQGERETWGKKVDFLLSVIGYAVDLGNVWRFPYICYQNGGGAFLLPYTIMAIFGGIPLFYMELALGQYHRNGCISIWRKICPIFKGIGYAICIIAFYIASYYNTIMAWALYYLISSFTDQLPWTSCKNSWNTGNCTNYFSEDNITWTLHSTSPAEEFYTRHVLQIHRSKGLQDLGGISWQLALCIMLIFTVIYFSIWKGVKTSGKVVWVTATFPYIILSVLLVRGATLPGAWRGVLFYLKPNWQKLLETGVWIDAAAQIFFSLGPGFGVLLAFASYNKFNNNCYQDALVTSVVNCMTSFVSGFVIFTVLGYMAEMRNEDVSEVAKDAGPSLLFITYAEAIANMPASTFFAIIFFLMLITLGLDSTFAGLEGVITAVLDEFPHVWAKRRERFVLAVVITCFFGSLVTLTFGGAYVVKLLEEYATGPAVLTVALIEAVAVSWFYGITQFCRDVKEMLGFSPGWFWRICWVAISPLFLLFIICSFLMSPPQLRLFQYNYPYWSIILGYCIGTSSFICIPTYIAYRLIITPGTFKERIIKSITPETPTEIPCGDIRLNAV
Sequence of Sodium-dependent dopamine transporter (Q01959 whole entry): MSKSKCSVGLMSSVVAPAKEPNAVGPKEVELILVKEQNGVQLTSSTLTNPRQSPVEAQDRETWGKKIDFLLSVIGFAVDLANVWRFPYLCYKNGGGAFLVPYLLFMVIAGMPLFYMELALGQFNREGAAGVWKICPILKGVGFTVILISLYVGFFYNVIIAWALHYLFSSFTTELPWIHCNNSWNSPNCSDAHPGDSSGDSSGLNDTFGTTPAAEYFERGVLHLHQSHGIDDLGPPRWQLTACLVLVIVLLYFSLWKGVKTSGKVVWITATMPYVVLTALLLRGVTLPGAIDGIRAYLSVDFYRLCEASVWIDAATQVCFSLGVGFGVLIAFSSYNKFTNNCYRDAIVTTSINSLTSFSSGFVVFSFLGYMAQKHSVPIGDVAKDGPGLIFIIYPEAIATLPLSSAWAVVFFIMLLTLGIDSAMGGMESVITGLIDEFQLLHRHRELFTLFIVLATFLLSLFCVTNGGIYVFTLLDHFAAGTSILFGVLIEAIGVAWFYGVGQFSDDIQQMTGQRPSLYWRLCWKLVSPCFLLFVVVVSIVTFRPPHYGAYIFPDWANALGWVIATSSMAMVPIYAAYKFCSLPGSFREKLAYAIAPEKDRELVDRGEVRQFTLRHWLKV
Description for physchem: Dissociation constant, pKa of the compound

CCN(CC)C(=O)[C@@]1(c2ccc3sccc3c2)C[C@H]1CN
IC50 [1]: 47 nM
IC50 [2]: 1300 nM
IC50 [3]: 1100 nM

C=CCN(CC=C)C(=O)[C@@]1(c2ccc3c(c2)OCCO3)C[C@H]1CN
CLhep predicted [4]: 8.1 mL/min/kg
IC50 [1]: 3.5 nM
IC50 [2]: 6300 nM
IC50 [3]: 32 nM

C=C(F)CN(C)C(=O)[C@@]1(c2ccc3c(c2)OCCO3)C[C@H]1CN
IC50 [1]: 8.1 nM
IC50 [2]: > 10000 nM
IC50 [3]: 100 nM

C#CCN(C(=O)[C@@]1(c2ccc3c(c2)OCCO3)C[C@H]1CN)C1CC1
IC50 [1]: 4.4 nM
IC50 [2]: > 10000 nM
IC50 [3]: 160 nM

C=CCN(CC)C(=O)[C@@]1(c2ccc3c(c2)CCO3)C[C@H]1CN
IC50 [1]: 18 nM
IC50 [2]: > 10000 nM
IC50 [3]: 430 nM

CCN(CC)C(=O)[C@@]1(c2ccc3occc3c2)C[C@H]1CN
IC50 [1]: 47 nM
IC50 [2]: > 10000 nM
IC50 [3]: 280 nM

C#CCN(CC(=C)F)C(=O)[C@@]1(c2ccc3c(c2)OCCO3)C[C@H]1CN
IC50 [1]: 4 nM
IC50 [2]: > 10000 nM
IC50 [3]: 54 nM

C=CCN(CC=C)C(=O)[C@@]1(c2ccc3c(c2)OCO3)C[C@H]1CN
IC50 [1]: 7 nM
IC50 [2]: > 10000 nM
IC50 [3]: 58 nM

C#CCN(CC)C(=O)[C@@]1(c2ccc3c(c2)OCCO3)C[C@H]1CN
IC50 [1]: 5.9 nM
IC50 [2]: > 10000 nM
IC50 [3]: 125 nM

C=CCN(CC#CC)C(=O)[C@@]1(c2ccc3c(c2)OCO3)C[C@H]1CN
IC50 [1]: 15 nM
IC50 [2]: > 10000 nM
IC50 [3]: 64 nM

CCN(CC)C(=O)[C@@]1(c2ccc3c(c2)OCO3)C[C@H]1CN
Papp [5]: 4.7 ×10⁻⁶ cm/s
logD [6]: 0.4
CLhep predicted [4]: 7.9 mL/min/kg
IC50 [1]: 12 nM
IC50 [2]: > 10000 nM
IC50 [3]: 480 nM
logP [7]: 1.7
pKa (physchem): 9.6

NC[C@@H]1C[C@@]1(C(=O)N1CCc2ccccc2C1)c1ccc2c(c1)OCO2
IC50 [1]: 6.5 nM
IC50 [2]: 3600 nM
IC50 [3]: 26 nM

CCN(CC)C(=O)[C@@]1(c2ccc3c(c2)OCCO3)C[C@H]1CN
CLhep predicted [4]: 4.4 mL/min/kg
IC50 [1]: 6.3 nM
IC50 [2]: > 10000 nM
IC50 [3]: 140 nM

C#CCN(CC#C)C(=O)[C@@]1(c2ccc3c(c2)OCCO3)C[C@H]1CN
Papp [5]: 5.2 ×10⁻⁶ cm/s
CLhep predicted [4]: 7.9 mL/min/kg
IC50 [1]: 1.7 nM
IC50 [2]: > 10000 nM
IC50 [3]: 25 nM

C=CCN(CCC)C(=O)[C@@]1(c2ccc3c(c2)CCO3)C[C@H]1CN
IC50 [1]: 21 nM
IC50 [2]: > 10000 nM
IC50 [3]: 1700 nM

CCN(CC)C(=O)[C@@]1(c2ccc3c(c2)CCO3)C[C@H]1CN
IC50 [1]: 160 nM
IC50 [2]: > 10000 nM
IC50 [3]: 2100 nM

C=CCN(CC=C)C(=O)[C@@]1(c2ccc3c(c2)CCO3)C[C@H]1CN
IC50 [1]: 4.5 nM
IC50 [2]: > 10000 nM
IC50 [3]: 270 nM

CCN(CC)C(=O)[C@@]1(c2cccc(F)c2)C[C@H]1CN
IC50 [1]: 73 nM
IC50 [2]: > 10000 nM
IC50 [3]: 370 nM

C=CCN(CC(=C)F)C(=O)[C@@]1(c2ccc3c(c2)OCCO3)C[C@H]1CN
IC50 [1]: 3.2 nM
IC50 [2]: 2900 nM
IC50 [3]: 39 nM

C#CCN(CC1CC1)C(=O)[C@@]1(c2ccc3c(c2)OCCO3)C[C@H]1CN
IC50 [1]: 3.9 nM
IC50 [2]: > 10000 nM
IC50 [3]: 210 nM

C=C(F)CN(CC)C(=O)[C@@]1(c2ccc3c(c2)OCCO3)C[C@H]1CN
IC50 [1]: 5.2 nM
IC50 [2]: > 10000 nM
IC50 [3]: 112 nM

CCN(CC)C(=O)[C@@]1(c2ccc3c(c2)CCC3)C[C@H]1CN
IC50 [1]: 160 nM
IC50 [2]: > 10000 nM
IC50 [3]: 480 nM

C=CCN(CC)C(=O)[C@@]1(c2ccc3c(c2)OCO3)C[C@H]1CN
IC50 [1]: 7.1 nM
IC50 [2]: > 10000 nM
IC50 [3]: 150 nM

CCN(CC1CC1)C(=O)[C@@]1(c2ccc3c(c2)OCCO3)C[C@H]1CN
IC50 [1]: 7.1 nM
IC50 [2]: > 10000 nM
IC50 [3]: 540 nM

C#CCN(CC#C)C(=O)[C@@]1(c2ccc3c(c2)OCO3)C[C@H]1CN
IC50 [1]: 7.6 nM
IC50 [2]: 4300 nM
IC50 [3]: 49 nM

C#CCN(CC=C)C(=O)[C@@]1(c2ccc3c(c2)CCO3)C[C@H]1CN
IC50 [1]: 14 nM
IC50 [2]: > 10000 nM
IC50 [3]: 130 nM

NC[C@@H]1C[C@@]1(C(=O)N1CCc2ccccc21)c1ccc2c(c1)OCO2
IC50 [1]: 4.2 nM
IC50 [2]: 640 nM
IC50 [3]: 28 nM

NC[C@@H]1C[C@@]1(C(=O)N1CCc2sccc2C1)c1ccc2c(c1)OCO2
IC50 [1]: 9.4 nM
IC50 [2]: > 10000 nM
IC50 [3]: 14 nM

C=CCN(CC#CC)C(=O)[C@@]1(c2ccc3c(c2)CCO3)C[C@H]1CN
IC50 [1]: 40 nM
IC50 [2]: > 10000 nM
IC50 [3]: 210 nM

CC#CCN(CCC)C(=O)[C@@]1(c2ccc3c(c2)CCO3)C[C@H]1CN
IC50 [1]: 80 nM
IC50 [2]: > 10000 nM
IC50 [3]: 460 nM

NC[C@@H]1C[C@@]1(C(=O)C1NCc2ccccc21)c1ccc2c(c1)OCO2 (stereo partly drawn)
IC50 [1]: 20 nM
IC50 [2]: 3600 nM
IC50 [3]: 77 nM

NC[C@@H]1C[C@@]1(C(=O)N1CCOc2ccccc21)c1ccc2c(c1)OCO2
IC50 [1]: 5.8 nM
IC50 [2]: 5100 nM
IC50 [3]: 320 nM

C#CCN(CC#C)C(=O)[C@@]1(c2ccc3c(c2)CCO3)C[C@H]1CN
IC50 [1]: 17 nM
IC50 [2]: > 10000 nM
IC50 [3]: 145 nM

C=CCN(CC)C(=O)[C@@]1(c2ccc3c(c2)OCCO3)C[C@H]1CN
CLhep predicted [4]: 8.8 mL/min/kg
IC50 [1]: 2.9 nM
IC50 [2]: > 10000 nM
IC50 [3]: 65 nM

C=CCN(CC)C(=O)C1(c2ccccc2)C(CN)C1c1ccccc1 (racemic)
IC50 [1]: > 10000 nM
IC50 [2]: > 10000 nM
IC50 [3]: 3400 nM

NCC1C(c2ccccc2)C1(C(=O)N1CCc2ccccc21)c1ccccc1 (racemic)
IC50 [1]: > 10000 nM
IC50 [2]: 4300 nM
IC50 [3]: 560 nM

CCN(CC)C(=O)C1(c2ccccc2)C(CN)C1c1ccccc1 (racemic)
IC50 [1]: > 10000 nM
IC50 [2]: > 10000 nM
IC50 [3]: 6400 nM

CCN(CC)C(=O)C1(c2ccccc2)CC1CN (racemic)
logD [6]: 0
CL renal [8]: 350 mL/min

C=CCN(CC)C(=O)C1(c2ccccc2)C(CN)C1(C)C (racemic)
IC50 [1]: 6400 nM
IC50 [2]: > 10000 nM
IC50 [3]: > 10000 nM

CCN(CC)C(=O)C1(c2ccccc2)C(CN)C1(C)C (racemic)
IC50 [1]: > 10000 nM
IC50 [2]: 4500 nM
IC50 [3]: > 10000 nM

CCN(CC)C(=O)C1(c2ccccc2)CC1(C)CN (racemic)
IC50 [1]: > 10000 nM
IC50 [2]: > 10000 nM
IC50 [3]: 6900 nM

CC1(C)C(CN)C1(C(=O)N1CCc2ccccc21)c1ccccc1 (racemic)
IC50 [1]: > 10000 nM
IC50 [2]: > 10000 nM
IC50 [3]: > 10000 nM

CNCC[C@@H](Oc1ccccc1C)c1ccccc1 [ATOMOXETINE]
bioavailability (clinical): 85%
logD [6]: 0.8
CLhep predicted [4]: 14.3 mL/min/kg
half-life [9]: 8 h
logP [7]: 3.5

CCN(CC)C(=O)[C@@]1(c2ccccc2)C[C@H]1CN [LEVOMILNACIPRAN]
logD [6]: -0.2
CLhep predicted [4]: 5 mL/min/kg
logP [7]: 1.6
